From PubChem BioAssay AID602404 (Sanford-Burnham Center for Chemical Genomics, 2012)
pIC50: −log10 of the molar value. Where “and” joins values, the source holds several entries; their conditions need not be identical. Identical values can stand only once. Calls of active or inactive are those of the source. How the calls were made is not given here.

target: Ubiquitin-conjugating enzyme E2 N (Homo sapiens) (UniProt P61088); assay: inhibition of UBC13-driven polyubiquitin chain formation – biochemical, TR-FRET, set 4, SAR follow-up (AID 602404); settings: UBC13 polyubiquitination
Sequence (P61088 whole entry, looked up): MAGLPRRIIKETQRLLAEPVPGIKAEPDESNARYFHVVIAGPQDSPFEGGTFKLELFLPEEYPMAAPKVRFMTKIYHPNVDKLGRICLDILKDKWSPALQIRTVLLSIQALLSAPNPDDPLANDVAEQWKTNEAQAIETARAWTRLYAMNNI

SMILES | pIC50 | IC50
CCCN1CCN(C(=O)C2CCN(c3ncnc4c3nc3n4CCCCC3)CC2)CC1 | 5.52 | –
CCC1CCCCN1CCCNC(=O)C1CCN(c2ncnc3c2nc2n3CCCCC2)CC1 (configuration not stated) | 5.25 | –
Cc1ccc(NC(=O)C2CCN(c3ncnc4c3nc3n4CCCCC3)CC2)c(Cl)c1 | – | > 100 µM (inactive)
Cc1ccc(NC(=O)C2CCN(c3ncnc4c3nc3n4CCCC3)CC2)cc1F | – | inactive
O=C(Nc1cccc(Cl)c1)C1CCN(c2ncnc3c2nc2n3CCCCC2)CC1 | 5.24 | –
Cc1ccc(NC(=O)C2CCN(c3ncnc4c3nc3n4CCCC3)CC2)cc1C | – | inactive
O=C(NCC1CCN(Cc2cccc(Cl)c2)CC1)[C@@H]1CCCN(c2ncnc3c2nc2n3CCCC2)C1 | 6.11 | –
Cc1cc(C)cc(NC(=O)C2CCN(c3ncnc4c3nc3n4CCCC3)CC2)c1 | – | inactive
O=C(NCc1cccc(Cl)c1)C1CCN(c2ncnc3c2nc2n3CCCCC2)CC1 | – | inactive
CC1CCCCN1C(=O)C1CCN(c2ncnc3c2nc2n3CCCCC2)CC1 (configuration not stated) | – | > 100 µM (inactive)
Cc1ccc(NC(=O)C2CCCN(c3ncnc4c3nc3n4CCCC3)C2)cc1C (configuration not stated) | – | inactive
CC1CC(C)CN(C(=O)C2CCN(c3ncnc4c3nc3n4CCCCC3)CC2)C1 (configuration not stated) | – | inactive
Cc1cccc(N2CCN(CCCNC(=O)C3CCCN(c4ncnc5c4nc4n5CCCCC4)C3)CC2C)c1 (configuration not stated) | 4.72 | –
O=C(C1CCN(c2ncnc3c2nc2n3CCCCC2)CC1)N1CCN(c2ccccn2)CC1 | – | inactive
Cc1ccc(NC(=O)C2CCN(c3ncnc4c3nc3n4CCCCC3)CC2)cc1F | – | inactive
O=C(Nc1cc(F)ccc1F)C1CCN(c2ncnc3c2nc2n3CCCCC2)CC1 | – | inactive
Cc1ccccc1CN1CCC(CNC(=O)C2CCCN(c3ncnc4c3nc3n4CCCCC3)C2)CC1 (configuration not stated) | 5.45 | –
COc1ccccc1N1CCN(CCCNC(=O)C2CCCN(c3ncnc4c3nc3n4CCCCC3)C2)CC1 (configuration not stated) | – | inactive
O=C(C1CCN(c2ncnc3c2nc2n3CCCCC2)CC1)N1CCOCC1 | – | inactive

SMILES | pIC50 | IC50
O=C(NCC1CCN(Cc2cccc(Cl)c2)CC1)C1CCCN(c2ncnc3c2nc2n3CCCCC2)C1 (configuration not stated) | 6.09 and 5.95 | –
O=C(NCC1CCN(Cc2cccc(Cl)c2)CC1)C1CCCN(c2ncnc3c2nc2n3CCCC2)C1 (configuration not stated) | 6.02 | –
COc1cc(OC)c(NC(=O)C2CCN(c3ncnc4c3nc3n4CCCCC3)CC2)cc1Cl | – | inactive
Cc1cccc(NC(=O)C2CCN(c3ncnc4c3nc3n4CCCCC3)CC2)c1 | – | inactive
O=C(c1ccco1)N1CCN(C(=O)C2CCN(c3ncnc4c3nc3n4CCCCC3)CC2)CC1 | – | inactive
O=C(NCC1CCN(Cc2ccccc2F)CC1)C1CCCN(c2ncnc3c2nc2n3CCCCC2)C1 (configuration not stated) | 5.07 | –
O=C(Nc1ccc(F)c(Cl)c1)C1CCN(c2ncnc3c2nc2n3CCCCC2)CC1 | 5.25 | –
O=C(C1CCN(c2ncnc3c2nc2n3CCCCC2)CC1)N1CCN(c2ccc(F)cc2)CC1 | – | inactive
Cc1ccc(NC(=O)C2CCN(c3ncnc4c3nc3n4CCCCC3)CC2)cc1Cl | 5.40 | –
O=C(C1CCN(c2ncnc3c2nc2n3CCCCC2)CC1)N1CCC(Cc2ccccc2)CC1 | 4.85 | –
Cc1ccc(NC(=O)C2CCN(c3ncnc4c3nc3n4CCCCC3)CC2)cc1Br | – | > 100 µM (inactive)
O=C(NCC1CCN(Cc2ccc(Cl)cc2)CC1)C1CCCN(c2ncnc3c2nc2n3CCCC2)C1 (configuration not stated) | 5.17 | –
O=C(NCC1CCN(Cc2cccc(Cl)c2)CC1)[C@H]1CCCN(c2ncnc3c2nc2n3CCCCC2)C1 | 4.82 | –
O=C(NCC1CCN(Cc2ccccc2Cl)CC1)C1CCCN(c2ncnc3c2nc2n3CCCC2)C1 (configuration not stated) | 5.98 | –
COc1ccc(NC(=O)C2CCN(c3ncnc4c3nc3n4CCCCC3)CC2)cc1Cl | – | inactive
Cc1cccc(NC(=O)C2CCN(c3ncnc4c3nc3n4CCCCC3)CC2)c1C | – | inactive
O=C(NCC1CCN(Cc2ccc(Cl)c(Cl)c2)CC1)C1CCCN(c2ncnc3c2nc2n3CCCCC2)C1 (configuration not stated) | 5.39 | –
O=C(NCc1cccc(Cl)c1)C1CCCN(c2ncnc3c2nc2n3CCCC2)C1 (configuration not stated) | – | > 100 µM (inactive)
